# From ChEMBL document CHEMBL3832048, “DailyMed|setid=020d34eb-9560-4218-9d87-dfdeff705c3a | BICALUTAMIDE - bicalutamide tablet, film coated|Physicians Total Care, Inc”
# Tests used:
# [1] = (§1) Pharmacokinetic parameters for Bicalutamide following single oral administration of Bicalutamide tablets to 30 healthy male subjects and 40 patients with prostrate cancer.; format: ADME, organism-based; parameters: route oral; settings: human, in vivo, dosed compound id 25, dosed compound name BICALUTAMIDE, gender male, regimen Single dose, tissue Plasma
# Homo sapiens = experiment: as §1; format: ADME, organism-based; parameters: route oral; settings: in vivo, po, dosed compound id 25, dosed compound name BICALUTAMIDE, gender male, regimen Single dose, tissue Plasma
smiles,measurement,setting,value
CC(O)(CS(=O)(=O)c1ccc(F)cc1)C(=O)Nc1ccc(C#N)c(C(F)(F)F)c1 (stereo not given) [BICALUTAMIDE],Cmax,[1]; po,768 ng/mL
same,CL/F,[1]; route oral,5.33 mL/min
same,Tmax,[1]; route oral,31.3 h
same,half-life,[1]; route oral,139 h
same,Css,Homo sapiens,8939 ng/mL
